Measurements published in US20230105693A1, “ANTIMICROBIAL COMPOSITIONS” (Firmenich SA, priority 2020, published 2023).
Like-named read-outs stand apart in the source and are kept apart here.

How the values were obtained:
[1] = system: Escherichia coli ATCC 10536; assay: Robotic BCT test of perfume ingredients in model surfactant bases; type: cell-based; conditions: for Log reduction (Log CFU/mL) Base 3: Base 3: SLES 1.5%, coco-glucoside 0.75%; for Log reduction (Log CFU/mL) Base 4: Base 4: SLES 2.25%, sodium xylene sulfonate 3%; for log reduction at 0.5 %: Escherichia coli, ATCC10536, 45 s
Experimental: The surfactant bases tested included 1) sodium lauryl ether sulfate (SLES) and cocamidopropyl betaine (CAPB) at 3:1 mass ratios; 2) SLES, CAPB and coco-glucoside at 2:1:1 mass ratios. Test samples were prepared by mixing perfume ingredients with the surfactant bases and vigorously stirred for 24 hrs. Concentration of perfume ingredients in the bases was 0.5% wt. Samples with transparent appearance were selected for antimicrobial testing.
Antimicrobial efficacy was tested against a representative Gram-negative bacterial strain, Escherichia coli ATCC 10536, using robotic bacteria contact time (BCT) test based on European standard EN-1276 and EP2787827(B1).
Preparation of screening plate and dilution plate: Aliquots (270 µl) of compositions were dispensed into the wells of a 96-well microtiter plate (MTP) along two columns (B1-H1, and B7-H7), and 270 µl of MilliQ water was added to well A1 and A7 as the control samples. This MTP was labelled as the “Screening plate”. In another MTP, labelled as the “Dilution plate”, 270 µL of Dey-Engley (D/E) neutralizing solution was added to column 1 and column 7. 270 µl of tryptone diluent solution was added to columns 2-6 and columns 8-12 of the Dilution MTP by a Hamilton robotic liquid handling station.
BCT test & neutralization & dilution: Bacterial stock (30 µl) was then added to columns 1 of the ‘Screening plate’ and mixed by a Hamilton robotic liquid handling station. After a contact time of 45 seconds, 30 µl of the mixtures in column 1 were transferred into the corresponding wells of column 1 of the ‘Dilution plate’. After neutralizing for 5 minutes in the D/E neutralizing solution, 30 µl of the neutralized mixtures were transferred from column 1 to column 2 of the Dilution MTP and mixed, followed by transferring 30 µl of the mixtures from column 2 into column 3. This process was repeated serially diluting the bacteria suspensions across the plate to column 6. Bacterial stock (30 µl) was then added to columns 7 of the ‘Screening plate’ and mixed by a Hamilton robotic liquid handling station. After a contact time of 45 seconds, 30 µl of the mixtures in column 7 were transferred into the corresponding wells of column 7 of the ‘Dilution plate’. After neutralizing for 5 minutes in the D/E neutralizing solution, 30 µl of the mixtures were transferred from column 7 to column 8 of the Dilution MTP and mixed, followed by transferring further 30 µl mixtures from column 8 into column 9. This process was repeated serially diluting the bacteria suspensions across the plate to column 12.
Plating: 30 µl volumes from each well in the Dilution MTP were transferred onto four Tryptone Soya Agar (TSA) plates. The TSA plates were allowed to stand for about two hours so that the 30 µl inocula spots could dry and the plates were then inverted and incubated overnight at 37° C. for 24 hours. After incubation, colonies were counted.
Calculating log reduction: Select the dilutions with colony counts, and calculate the viable cell counts (CFU/mL) of mixture in ‘Screening plate’, and log reduction against the control MilliQ sample was calculated.

[2] = physchem; type: physicochemical
Experimental: The partition coefficient (P) is defined as the ratio of the concentrations (C) to the equilibrium of a dissolved and highly diluted substance in a biphasic system consisting of two almost immiscible solvents.
In the case of n-octanol and water:
The partition coefficient P is the quotient of two concentrations, it is generally indicated in its logarithmic form, base 10 (LogP).
The log P values of different perfume ingredients were measured using standard high performance liquid chromatography method, according to the reference (OECD, guideline No. 117, adopted on 13 Apr. 2004, Partition coefficient (n-octanol-water), High Performance Liquid Chromatography (HPLC) Method).

[3] = Equivalent alkane carbon number (EACN) in model microemulsion system; type: physicochemical; conditions: C10E5/water/isopropyl myristate model system, 3% wt perfume ingredient
Experimental: EACN values provide information on polarity and surface activity of apolar ingredients. Tchakalova and Fieber (J. of Surfactants and Detergents, 2012, 15(2):167-177) classified perfume ingredients based on values of EACNmix, the EACN of a mixture consisting of a test perfume ingredient and a reference oil (isopropyl myristate). The same model system and method were used to measure the EACN values of perfume ingredients with antimicrobial activities. Different perfume ingredients were added to the model microemulsion system shown in Table 1, in which the nonionic pentaethylene glycol mono n-decyl ether (C10E5) was used as surfactant. Phase transition temperatures of the system from Winsor I to Winsor III, and from Winsor III to Winsor II were determined using a water bath. Alkanes with different alkane carbon numbers (octane, decane, dodecane and hexadecane) were used to establish a linear correlation curve between EACN and the PIT, which is the average of the transitions from Winsor I to Winsor III, and from Winsor III to Winsor II, respectively. EACNmix was then calculated based on the linear relationship and the measured PIT for systems containing different perfume ingredients. The EACN of the pure perfume ingredient was calculated based on the molar ratio of the tested PRMs in the oil phase using following equation: […]
wherein n and nref are the molar fractions of tested perfume ingredient and the reference ingredient (i.e., isopropyl myristate) in the oil phase, respectively.

[4] = 0.5% perfume ingredient, CAPB 0.75%, contact 45 s
[5] = 0.5% perfume ingredient, Base 1: SLES 1.875%, CAPB 0.625%, contact 45 s, read-out: Log reduction in Base 1 (Log CFU/mL)
[6] = 0.5% perfume ingredient, Base 2: SLES 2.25%, CAPB 0.75%, contact 45 s, read-out: Log reduction (Log CFU/mL) Base 2
[7] = n-octanol/water, HPLC method, read-out: Log P

Row | Compound | Log P [2] | EACN [3] | log reduction at 0.5 % [1, 5] | chromatographic logP [2, 7] | further results
1 | 2 /3 //4-(5,5,6-trimethylbicyclo[2.2.1]hept-2-yl)-1-cyclohexanol(A/B/C) + 2-(1,7,7-trimethylbicyclo[2.2.1]hept-2-yl)-1-cyclohexanol (D) | 5.23 | -16.52 |  |  | Log reduction in Base 1 (Log CFU/mL) ([1]; 0.5% perfume ingredient, Base 1: SLES 1.875%, CAPB 0.625%, contact 45 s): 0.4 Log CFU/mL; Log reduction (Log CFU/mL) Base 2 ([1]; 0.5% perfume ingredient, Base 2: SLES 2.25%, CAPB 0.75%, contact 45 s): -1.0 Log CFU/mL; Log reduction (Log CFU/mL) Base 3 [1, 4]: Insoluble; Log reduction (Log CFU/mL) Base 4 [1, 4]: -0.2 Log CFU/mL
2 | O=C1CCC[C@H]2[C@@H]1[C@H]1C=C[C@@H]2C1 (racemic) [(1RS,2SR,7RS,8SR)-tricyclo[6.2.1.0^~2,7^~]undec-9-en-3-one OR (1RS,2RS,7S,8SR)-tricyclo[6.2.1.0^~2, 7^~] undec-9-en-3-one] | 2.53 | -5.81 |  |  | 
3 | CCC(C)(O)CCCC(C)C (racemic) [(+-)-3,7-dimethyl-3-octanol] |  | -4.83 | 1.9 ± 1.6 | 3.78 | Log reduction (Log CFU/mL) Base 3 [1, 4]: 0.3 Log CFU/mL; Log reduction (Log CFU/mL) Base 4 [1, 4]: 0.4 Log CFU/mL; log reduction at 0.5 % [1, 6]: 0
4 | CC(CCO)CCc1ccccc1 (racemic) [(+-)-3-methyl-5-phenyl-1-pentanol] |  | -37.05 | 5 ± 2.1 |  | Log reduction (Log CFU/mL) Base 3 [1, 4]: 2.9 Log CFU/mL; Log reduction (Log CFU/mL) Base 4 [1, 4]: 2.8 Log CFU/mL; log reduction at 0.5 % [1, 6]: 0; log reduction at 0.5 % ([1]; model base 1, table by functional group, read-out: Log reduction in Base 1 (Log CFU/mL)): 4.3; chromatographic logP [2]: 3
5 | CCCCCCC1CCC(=O)O1 (racemic) [(+-)-4-decanolide] |  | -4.96 | 0.2 ± 0.3 | 3.02 | Log reduction (Log CFU/mL) Base 3 [1, 4]: 0.6 Log CFU/mL; Log reduction (Log CFU/mL) Base 4 [1, 4]: 0.25 Log CFU/mL; log reduction at 0.5 % [1, 6]: 0
6 | CCCCCC1CCC(=O)O1 (racemic) [(+-)-4-nonanolide] |  | -11.24 |  | 2.45 | 
7 | C=C/C(C)=C\CC1OC1(C)C (racemic) [(+-)-(2,2-dimethyl-3-[(2Z)-3-methyl-2,4-pentadien-1-yl]oxirane OR (+-)-(2,2-dimethyl-3-[(2E)-3-methyl-2,4-pentadien-1-yl]oxirane] | 2.92 | -1.45 |  |  | 
8 | CC/C(CC(C)CC)=N/O (racemic) [(+-)-(3Z)-5-methyl-3-heptanone oxime OR (+-)-(3E)-5-methyl-3-heptanone oxime] | 2.45 | -13.67 |  |  | Log reduction in Base 1 (Log CFU/mL) ([1]; model base 1, table by functional group): 3.3 Log CFU/mL
9 | CC1=CC[C@H]([C@H](C)CCO)CC1 (single isomer, unassigned) | 3.46 | -34.57 |  |  | 
10 | CC1=C(C=O)C(C)(C)CC=C1 [2,6,6-trimethyl-1,3-cyclohexadiene-1-carbaldehyde] |  | -6.62 |  | 2.57 | 
11 | C=CCc1ccc(O)c(OC)c1 [2-methoxy-4-(2-propen-1-yl)phenol] |  | -31.24 | 0.2 | 2.14 | 
12 | CCCc1ccc(O)c(OC)c1 [2-methoxy-4-propyl phenol] |  | -34.16 |  | 2.39 | 
13 | CC(C)(O)Cc1ccccc1 [2-methyl-1-phenyl-2-propanol] |  | -17.89 | -0.1 | 1.84 | 
14 | C/C(=C\c1ccc(C)cc1)CO [(2E)-2-methyl-3-(4-methylphenyl)-2-propen-1-ol] |  | -36.15 |  | 2.29 | 
15 | CCC/C=C/COC(C)=O [(E)-2-hexenyl acetate] |  | 1.12 |  | 2.59 | 
16 | N#C/C=C/c1ccccc1 [(E)-3-phenyl-2-propenenitrile] |  | -14.36 |  | 1.98 | 
17 | CC/C=C\CCCCCO [(Z)-6-nonen-1-ol] | 3.4 | -29.91 |  |  | 
18 | CCOC(=O)/C=C/c1ccccc1 [Ethyl(E)-3-phenyl-2-propenoate] |  |  | 1.9 ± 1 | 3 | Log reduction (Log CFU/mL) Base 3 [1, 4]: Insoluble; Log reduction (Log CFU/mL) Base 4 [1, 4]: Insoluble; log reduction at 0.5 % [1, 6]: 0
19 | COC(=O)c1ccccc1N [methyl 2-aminobenzoate] |  | -22.57 |  | 1.83 | 
